Test results: PubChem BioAssay AID1963426 (Molecular Pharmacology Branch, DTP, NCI, 2024)
Where “and” joins values, the source holds several entries; their conditions need not be identical. Identical values can stand only once. Values belong to the compound of their own block, whether it stands above or below them.

Test system: 186277-243-T-J2-PDC complex spheroid growth, % test/control
Assay: Anticancer human tumor 186277-243-T-J2-PDC patient-derived colon adenocarcinoma cell line growth inhibition [Asc]
Details: for viability, T/C: stronger effect = lower value
Outline: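 Tumor cells were grown as complex spheroids with human endothelial cells (HUVEC) and human mesenchymal stem cells as stroma. Agents were tested alone and in combination, in half-log steps down from the clinical Cmax, or from 10 microM where Cmax was unknown.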

[1] = curve of first compound, second compound 0.03 µM
[2] = curve of first compound, second compound 0.0949 µM
[3] = curve of first compound, second compound 0.3 µM
[4] = curve of first compound, second compound 0.949 µM
[5] = curve of first compound, second compound 3 µM
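Note: spheroids exposed to agents for 7 days.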
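Throughout, for viability, T/C: 100% = DMSO vehicle control wells.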

IC50 (curve of compound): 52.2 nM and 41.3 nM and 112 nM
Compound: COc1c(OCCCN2CCOCC2)ccc2c3n(c(=NC(=O)c4cnc(N)nc4)nc12)CCN3
viability, T/C (compound 0.00316 µM): 91% and 96.2% and 93.6%
viability, T/C (compound 0.01 µM): 102% and 91% and 105%
viability, T/C (compound 0.0316 µM): 58.9% and 54.5% and 69%
viability, T/C (compound 0.1 µM): 35.2% and 28.6% and 56.5%
viability, T/C (compound 0.316 µM): 17.5% and 17% and 29.3%
viability, T/C (compound 1 µM): 13.2% and 11.8% and 19.8%

IC50 [1]: > 3000 nM
IC50 [2]: > 3000 nM
IC50 [3]: 289 nM
IC50 [4]: < 9.49 nM
IC50 [5]: < 9.49 nM
Compound: Cc1nc(N2CCC3(CC2)COC(C)C3N)c(CO)nc1Sc1ccnc(N)c1Cl (configuration not stated) + CCN1C(C(=O)NC23CCC(C(=O)O)(CC2)CC3)C(c2cccc(Cl)c2F)C2(C(=O)Nc3cc(Cl)ccc32)C12CCCCC2
viability, T/C (second compound 0.03 µM, first compound 0.00949 µM): 122%
viability, T/C (second compound 0.03 µM, first compound 0.03 µM): 127%
viability, T/C (second compound 0.03 µM, first compound 0.0949 µM): 105%
viability, T/C (second compound 0.03 µM, first compound 0.3 µM): 113%
viability, T/C (second compound 0.03 µM, first compound 0.949 µM): 90.9%
viability, T/C (second compound 0.03 µM, first compound 3 µM): 90.7%
viability, T/C (second compound 0.0949 µM, first compound 0.00949 µM): 95.1%
viability, T/C (second compound 0.0949 µM, first compound 0.03 µM): 89.2%
viability, T/C (second compound 0.0949 µM, first compound 0.0949 µM): 84.5%
viability, T/C (second compound 0.0949 µM, first compound 0.3 µM): 84.5%
viability, T/C (second compound 0.0949 µM, first compound 0.949 µM): 71.9%
viability, T/C (second compound 0.0949 µM, first compound 3 µM): 57.8%
viability, T/C (second compound 0.3 µM, first compound 0.00949 µM): 63.2%
viability, T/C (second compound 0.3 µM, first compound 0.03 µM): 67.2%
viability, T/C (second compound 0.3 µM, first compound 0.0949 µM): 57.3%
viability, T/C (second compound 0.3 µM, first compound 0.3 µM): 48.6%
viability, T/C (second compound 0.3 µM, first compound 0.949 µM): 39.6%
viability, T/C (second compound 0.3 µM, first compound 3 µM): 28.3%
viability, T/C (second compound 0.949 µM, first compound 0.00949 µM): 45.9%
viability, T/C (second compound 0.949 µM, first compound 0.03 µM): 43.6%
viability, T/C (second compound 0.949 µM, first compound 0.0949 µM): 40.8%
viability, T/C (second compound 0.949 µM, first compound 0.3 µM): 33.1%
viability, T/C (second compound 0.949 µM, first compound 0.949 µM): 26.1%
viability, T/C (second compound 0.949 µM, first compound 3 µM): 19.1%
viability, T/C (second compound 3 µM, first compound 0.00949 µM): 26.8%
viability, T/C (second compound 3 µM, first compound 0.03 µM): 27.6%
viability, T/C (second compound 3 µM, first compound 0.0949 µM): 22.1%
viability, T/C (second compound 3 µM, first compound 0.3 µM): 19.4%
viability, T/C (second compound 3 µM, first compound 0.949 µM): 11.4%
viability, T/C (second compound 3 µM, first compound 3 µM): 9.13%

IC50 [1]: > 1000 nM
IC50 [2]: > 1000 nM
IC50 [3]: 704 nM
IC50 [4]: 24.6 nM
IC50 [5]: < 3.16 nM
Compound: CCN1CCN(Cc2ccc(Nc3ncc(F)c(-c4cc(F)c5nc(C)n(C(C)C)c5c4)n3)nc2)CC1 + CCN1C(C(=O)NC23CCC(C(=O)O)(CC2)CC3)C(c2cccc(Cl)c2F)C2(C(=O)Nc3cc(Cl)ccc32)C12CCCCC2
viability, T/C (second compound 0.03 µM, first compound 0.00316 µM): 114%
viability, T/C (second compound 0.03 µM, first compound 0.01 µM): 130%
viability, T/C (second compound 0.03 µM, first compound 0.0316 µM): 112%
viability, T/C (second compound 0.03 µM, first compound 0.1 µM): 97%
viability, T/C (second compound 0.03 µM, first compound 0.316 µM): 99.6%
viability, T/C (second compound 0.03 µM, first compound 1 µM): 85.2%
viability, T/C (second compound 0.0949 µM, first compound 0.00316 µM): 107%
viability, T/C (second compound 0.0949 µM, first compound 0.01 µM): 99.8%
viability, T/C (second compound 0.0949 µM, first compound 0.0316 µM): 89.4%
viability, T/C (second compound 0.0949 µM, first compound 0.1 µM): 75%
viability, T/C (second compound 0.0949 µM, first compound 0.316 µM): 82.3%
viability, T/C (second compound 0.0949 µM, first compound 1 µM): 64.7%
viability, T/C (second compound 0.3 µM, first compound 0.00316 µM): 68.1%
viability, T/C (second compound 0.3 µM, first compound 0.01 µM): 74.7%
viability, T/C (second compound 0.3 µM, first compound 0.0316 µM): 65.8%
viability, T/C (second compound 0.3 µM, first compound 0.1 µM): 61.6%
viability, T/C (second compound 0.3 µM, first compound 0.316 µM): 64.2%
viability, T/C (second compound 0.3 µM, first compound 1 µM): 44.6%
viability, T/C (second compound 0.949 µM, first compound 0.00316 µM): 49.7%
viability, T/C (second compound 0.949 µM, first compound 0.01 µM): 52.6%
viability, T/C (second compound 0.949 µM, first compound 0.0316 µM): 50.4%
viability, T/C (second compound 0.949 µM, first compound 0.1 µM): 44.3%
viability, T/C (second compound 0.949 µM, first compound 0.316 µM): 39.5%
viability, T/C (second compound 0.949 µM, first compound 1 µM): 34.7%
viability, T/C (second compound 3 µM, first compound 0.00316 µM): 29.1%
viability, T/C (second compound 3 µM, first compound 0.01 µM): 31.5%
viability, T/C (second compound 3 µM, first compound 0.0316 µM): 26.8%
viability, T/C (second compound 3 µM, first compound 0.1 µM): 25.7%
viability, T/C (second compound 3 µM, first compound 0.316 µM): 23.2%
viability, T/C (second compound 3 µM, first compound 1 µM): 24.6%

IC50 (curve of first compound, second compound 0.1 µM): > 3000 nM
IC50 (curve of first compound, second compound 0.316 µM): > 3000 nM
IC50 (curve of first compound, second compound 1 µM): > 3000 nM
IC50 (curve of first compound, second compound 3.16 µM): > 3000 nM
IC50 (curve of first compound, second compound 10 µM): > 3000 nM
Compound: Cc1nc(N2CCC3(CC2)COC(C)C3N)c(CO)nc1Sc1ccnc(N)c1Cl (configuration not stated) + Cc1c(S(C)(=O)=O)c(-c2cc(F)cc(N3CCN(c4ccc(NS(=O)(=O)c5ccc(NC(CCN6CCC(C(=O)OCCCP(=O)(O)O)CC6)CSc6ccccc6)c(S(=O)(=O)C(F)(F)F)c5)cc4)CC3)c2)c(-c2ccc(Cl)cc2)n1C(C)C
viability, T/C (second compound 0.1 µM, first compound 0.00949 µM): 112%
viability, T/C (second compound 0.1 µM, first compound 0.03 µM): 99%
viability, T/C (second compound 0.1 µM, first compound 0.0949 µM): 106%
viability, T/C (second compound 0.1 µM, first compound 0.3 µM): 116%
viability, T/C (second compound 0.1 µM, first compound 0.949 µM): 98.1%
viability, T/C (second compound 0.1 µM, first compound 3 µM): 96.1%
viability, T/C (second compound 0.316 µM, first compound 0.00949 µM): 116%
viability, T/C (second compound 0.316 µM, first compound 0.03 µM): 94.9%
viability, T/C (second compound 0.316 µM, first compound 0.0949 µM): 112%
viability, T/C (second compound 0.316 µM, first compound 0.3 µM): 117%
viability, T/C (second compound 0.316 µM, first compound 0.949 µM): 107%
viability, T/C (second compound 0.316 µM, first compound 3 µM): 110%
viability, T/C (second compound 1 µM, first compound 0.00949 µM): 116%
viability, T/C (second compound 1 µM, first compound 0.03 µM): 97.7%
viability, T/C (second compound 1 µM, first compound 0.0949 µM): 114%
viability, T/C (second compound 1 µM, first compound 0.3 µM): 121%
viability, T/C (second compound 1 µM, first compound 0.949 µM): 126%
viability, T/C (second compound 1 µM, first compound 3 µM): 107%
viability, T/C (second compound 3.16 µM, first compound 0.00949 µM): 112%
viability, T/C (second compound 3.16 µM, first compound 0.03 µM): 104%
viability, T/C (second compound 3.16 µM, first compound 0.0949 µM): 111%
viability, T/C (second compound 3.16 µM, first compound 0.3 µM): 115%
viability, T/C (second compound 3.16 µM, first compound 0.949 µM): 111%
viability, T/C (second compound 3.16 µM, first compound 3 µM): 121%
viability, T/C (second compound 10 µM, first compound 0.00949 µM): 97.6%
viability, T/C (second compound 10 µM, first compound 0.03 µM): 96.3%
viability, T/C (second compound 10 µM, first compound 0.0949 µM): 115%
viability, T/C (second compound 10 µM, first compound 0.3 µM): 104%
viability, T/C (second compound 10 µM, first compound 0.949 µM): 100%
viability, T/C (second compound 10 µM, first compound 3 µM): 111%
